Assay results taken from PubChem BioAssay (NCI).
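1) Cells in 96-well plates. 2) Compound, 48 h, 5 concentrations. 3) Linear interpolation between surrounding doses. 4) Unreached endpoint = highest concentration. Definition used: TGI = concentration required for complete inhibition of growth.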 Where a SMILES comes first, the peptide text is derived from it. The star is where a group is joined. Boc = CC(C)(C)OC(=O)*

Assays:
Test in all cases: NCI anticancer screen, dose series, 48 h
SF-295 CNS = system: SF-295 CNS
SK-MEL-2 melanoma = system: SK-MEL-2 melanoma
SW-620 colon = system: SW-620 colon
786-0 renal = system: 786-0 renal
HL-60(TB) leukemia = system: HL-60(TB) leukemia
M14 melanoma = system: M14 melanoma
SK-MEL-28 melanoma = system: SK-MEL-28 melanoma
MALME-3M melanoma = system: MALME-3M melanoma
RPMI-8226 leukemia = system: RPMI-8226 leukemia
A549 NSCLC = system: A549 NSCLC
SN12C renal = system: SN12C renal
CAKI-1 renal = system: CAKI-1 renal
HOP-62 NSCLC = system: HOP-62 NSCLC
LOX IMVI melanoma = system: LOX IMVI melanoma
UACC-62 melanoma = system: UACC-62 melanoma
SK-OV-3 ovarian = system: SK-OV-3 ovarian
HS 578T breast = system: HS 578T breast
MCF7 breast = system: MCF7 breast
NCI/ADR-RES ovarian = system: NCI/ADR-RES ovarian
DU-145 prostate = system: DU-145 prostate

Compound | TGI (SF-295 CNS) [µM] | TGI (SK-MEL-2 melanoma) [µM] | TGI (SW-620 colon) [µM] | TGI (786-0 renal) [µM] | TGI (HL-60(TB) leukemia) [µM] | TGI (M14 melanoma) [µM] | TGI (SK-MEL-28 melanoma) [µM] | TGI (MALME-3M melanoma) [µM] | TGI (RPMI-8226 leukemia) [µM] | TGI (A549 NSCLC) [µM] | TGI (SN12C renal) [µM] | TGI (CAKI-1 renal) [µM] | TGI (HOP-62 NSCLC) [µM] | TGI (LOX IMVI melanoma) [µM] | TGI (UACC-62 melanoma) [µM] | TGI (SK-OV-3 ovarian) [µM] | TGI (HS 578T breast) [µM] | TGI (MCF7 breast) [µM] | TGI (NCI/ADR-RES ovarian) [µM] | TGI (DU-145 prostate) [µM]
O=[N+]([O-])c1cc2c(cc1O)[nH]c1cccc([N+](=O)[O-])c12 | > 100 | > 100 | > 100 | > 100 | > 100 | > 100 | > 100 | > 100 | > 100 | > 100 | > 100 | > 100 | > 100 | > 100 | – | – | – | – | – | –
COc1ccc2nc3ccccc3c(NCCCCCN(CCCl)CCCl)c2c1 | 1.21 | – | 1.19 | 0.137 | 0.0881 | 0.184 | 1.19 | – | 0.206 | 0.675 | – | – | 0.525 | 0.376 | 1.8 | – | – | – | – | –
COc1ccc(OC)c(/C=C/C(=O)C(C)(C)C)c1 | 67.4 | – | 38.6 | 36.9 | 38.7 | 30.2 | 31.8 | 45.3 | 40.7 | 82.1 | 45.4 | 39.1 | 50.8 | 40.6 | 23.4 | 90.4 | – | – | – | –
CCOc1ccccc1NC(=O)C(=O)C(C(=O)c1ccc2ccccc2c1)C1OC(=O)c2ccccc21 (stereo unspecified) | – | 29.4 | 33.8 | 21.1 | 59.3 | 36.4 | 35.5 | 30.2 | 40 | 98.2 | 37.4 | 36.8 | 31.2 | 29.1 | 21.3 | 52.8 | – | – | – | –
CCCCCCCCCCCCC/C=C1\C[C@H](O)COC1=O | 33 | 31.1 | 28.8 | 29.5 | 39.9 | 28.3 | 30.3 | 35.5 | 41 | 38.7 | 28.8 | 32.9 | 31.8 | – | 26.8 | 35.1 | – | – | – | –
CN/C=C(/c1ccc(OC)cc1)C(O)c1ccc(OC)c(OC)c1 (stereo unspecified) | > 100 | > 100 | > 100 | > 100 | > 100 | > 100 | > 100 | > 100 | > 100 | > 100 | > 100 | – | > 100 | > 100 | > 100 | > 100 | – | – | – | –
Nc1ccc2ncc(Nc3ccc(F)cc3)nc2c1 | > 100 | – | > 100 | > 100 | > 100 | > 100 | > 100 | > 100 | > 100 | > 100 | > 100 | > 100 | > 100 | > 100 | – | – | – | – | – | –
NCCn1ccc(NC(c2ccccc2)(c2ccccc2)c2ccccc2)nc1=O | 36.1 | 33.4 | 35.9 | 31.8 | 38.5 | – | 35 | 33.4 | 46.3 | 75.7 | 42.3 | – | 73.8 | 30.5 | – | – | – | – | – | –
COC(=O)C(Cc1c[nH]c2ccccc12)NC(=O)C(Cc1c[nH]c2ccccc12)NC(=O)C(Cc1c[nH]c2ccccc12)NC(=O)OC(C)(C)C (stereo not drawn) (Boc-Trp-Trp-Trp-OMe; configuration not given here) | – | 35.8 | 40.7 | 31.7 | 47.4 | > 100 | 33.8 | > 100 | 58.6 | > 100 | 39.4 | – | 32.7 | – | 38.3 | – | 48.4 | – | – | –
CC(C)[C@H]1CO[C@@H]2O[C@H](C)CC(=O)N21 | > 100 | > 100 | > 100 | > 100 | > 100 | > 100 | > 100 | > 100 | > 100 | > 100 | > 100 | > 100 | > 100 | – | > 100 | > 100 | – | – | – | –
CC(=O)OCC1OC(O[C@@H]2C[C@H]3C(C)(C)[C@H](OC(C)=O)CC[C@]3(C)[C@H]3CC[C@]4(C)C(=CC[C@H]4[C@@H](C)C[C@@H](O)[C@H](O)C(C)(C)O)[C@@]32C)C(O)C(O)C1O (stereo partly specified) | 33 | 31.1 | 32.8 | 29.9 | 33.3 | 36.5 | 29.8 | 31.9 | 30.2 | – | 31.7 | 27.3 | 29.3 | 30.2 | 30.5 | 32.5 | – | 33.2 | > 100 | 32.1
Cc1ccc(/C=C/C(=O)C(C)C)cc1 | > 100 | > 100 | > 100 | > 100 | – | > 100 | > 100 | – | 72.7 | > 100 | – | – | – | – | > 100 | > 100 | – | – | – | –
Cc1cccc(Cl)c1NC(N)=S | > 100 | – | 35.6 | 48.6 | > 100 | > 100 | > 100 | > 100 | 58.8 | > 100 | > 100 | > 100 | > 100 | – | > 100 | > 100 | – | – | – | –
Cc1cc(Cl)ccc1NC(=O)C(=O)Cc1ccc([N+](=O)[O-])c([N+](=O)[O-])c1CC(=O)C(=O)Nc1ccc(Cl)cc1C | > 100 | > 100 | > 100 | > 100 | > 100 | > 100 | > 100 | > 100 | > 100 | > 100 | > 100 | > 100 | > 100 | > 100 | > 100 | > 100 | – | – | – | –
O=C(CSc1nnc(Cc2ccccc2)o1)Nc1ccccc1Cl | > 100 | > 100 | > 100 | > 100 | > 100 | > 100 | > 100 | > 100 | > 100 | > 100 | > 100 | > 100 | > 100 | > 100 | > 100 | > 100 | – | – | – | –
COc1cc2c(cc1OC)C(=O)Cc1ccc3c(c1CNCC2)OCO3 | > 100 | > 100 | > 100 | > 100 | – | > 100 | > 100 | > 100 | > 100 | > 100 | > 100 | > 100 | > 100 | – | > 100 | > 100 | – | – | – | –
